Measured values published in BindingDB's records for doi:10.7270/Q2KH0KWR (Burnham Center For Chemical Genomics, 2012).
pIC50: −log10 of the molar value.

Molecular target: T1, Tyrosine-protein phosphatase non-receptor type 5 (Homo sapiens, UniProt P54829)
T1 sequence (P54829 whole entry): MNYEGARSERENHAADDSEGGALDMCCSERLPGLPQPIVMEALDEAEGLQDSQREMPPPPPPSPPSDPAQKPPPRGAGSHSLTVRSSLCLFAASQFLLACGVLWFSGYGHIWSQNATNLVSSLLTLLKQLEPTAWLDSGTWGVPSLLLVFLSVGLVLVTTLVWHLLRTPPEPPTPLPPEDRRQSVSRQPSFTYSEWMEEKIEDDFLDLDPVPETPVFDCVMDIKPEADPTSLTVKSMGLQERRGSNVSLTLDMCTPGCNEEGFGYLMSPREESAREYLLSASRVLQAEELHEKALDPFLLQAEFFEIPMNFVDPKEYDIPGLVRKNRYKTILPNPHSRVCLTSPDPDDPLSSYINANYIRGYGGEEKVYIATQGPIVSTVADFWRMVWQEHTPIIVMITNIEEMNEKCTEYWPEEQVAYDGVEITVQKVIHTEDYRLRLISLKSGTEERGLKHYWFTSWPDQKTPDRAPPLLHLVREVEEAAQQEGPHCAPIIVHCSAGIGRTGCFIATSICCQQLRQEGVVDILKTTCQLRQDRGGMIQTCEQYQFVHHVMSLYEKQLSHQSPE
Assay: PTPN5 inhibition measured colorimetrically – biochemical, colorimetric absorbance, orthogonal assay for STEP inhibitor project, dose response (AID 624207)
Conditions: not given

| SMILES | pIC50 |
| --- | --- |
| Nc1ccc2c(O)cc(S(=O)(=O)O)cc2c1 | < 4.10 |
| S=C1N=C(C23CC4CC(CC(C4)C2)C3)CC(c2ccc3c(c2)OCO3)N1 (configuration not stated) | < 4.10 |
| CCc1ccc(NC(=O)Cc2cn(C)c3ccccc23)cc1 | < 4.10 |
| Cc1ccc(-c2nc3ncccc3o2)cc1NC(=O)CC(C)C | < 4.10 |
| O=C(N/N=C/c1ccncc1)c1cccc(S(=O)(=O)Nc2ccc(Cl)cc2)c1 | 4.71 |
| COc1cc(NC(=S)N2CCN(C)CC2)c(OC)cc1Cl | < 4.10 |
| CC(=O)N1CCC(N(CCN2CCOCC2)C(=S)Nc2ccc(C)cc2)CC1 | < 4.10 |
| COc1ccc(NC(=O)c2cc(=O)c3ccccc3o2)cc1Cl | < 4.10 |
| O=C1NN(c2cccc(Br)c2)C(=O)/C1=C\c1ccc(N2CCOCC2)cc1 | < 4.10 |
| Cc1ccc(S(=O)(=O)c2cnc3ccc(Cl)cc3c2O)cc1 | < 4.10 |
| O=C(C=Cc1ccc(Cl)cc1)NC(=S)Nc1ccc(C(=O)O)cc1 | < 4.10 |
| CC(/N=N/c1ccc(S(N)(=O)=O)cc1[N+](=O)[O-])c1cccs1 (configuration not stated) | < 4.10 |
| CC(=O)c1ccc(S(=O)(=O)Nc2cccc(-n3cnnn3)c2)cc1 | < 4.10 |
| NN=C1C(Cl)=C(Cl)C(Cl)=C1Cl | < 4.10 |
| Cc1ccc(S(=O)(=O)N2CCCCC2)cc1NC(=O)c1ccc(=O)[nH]c1 | < 4.10 |
| COc1ccc(NC(S)=NCCN2CCC(C)CC2)cc1Cl [1-(3-chloro-4-methoxyphenyl)-3-[2-(4-methyl-1-piperidinyl)ethyl]thiourea] | 4.74 |
| COCCCN(C(S)=Nc1c(C)cc(C)cc1C)C(C)c1ccccn1 (configuration not stated) [1-(3-methoxypropyl)-1-[1-(2-pyridinyl)ethyl]-3-(2,4,6-trimethylphenyl)thiourea] | < 4.10 |
| CC(C)OCCCN=C(S)Nc1ccc(S(N)(=O)=O)cc1 [1-(3-propan-2-yloxypropyl)-3-(4-sulfamoylphenyl)thiourea] | < 4.10 |
| Cc1cc(C)c(NC(S)=NCC2CCN(C(C)c3ccccc3)C2)c(C)c1 (configuration not stated) [1-[[1-(1-phenylethyl)-3-pyrrolidinyl]methyl]-3-(2,4,6-trimethylphenyl)thiourea] | 4.92 |

| SMILES | pIC50 |
| --- | --- |
| Cc1c(C)n(C(=O)CSc2nc3ccccc3[nH]2)c2ccccc12 [2-(1H-benzimidazol-2-ylthio)-1-(2,3-dimethyl-1-indolyl)ethanone] | < 4.10 |
| CCOc1cc(CN=Nc2nc(O)c(CC(=O)O)s2)ccc1OCc1ccc(Cl)cc1Cl [2-[2-[(N''E)-N''-[4-(2,4-dichlorobenzyl)oxy-3-ethoxy-benzylidene]hydrazino]-4-keto-2-thiazolin-5-yl]acetic acid] | < 4.10 |
| O=C(O)c1ccc2c(c1)C(=O)N(c1cccc(-c3nc4ccccc4s3)c1)C2=O [2-[3-(1,3-benzothiazol-2-yl)phenyl]-1,3-bis(oxidanylidene)isoindole-5-carboxylic acid] | < 4.10 |
| CCN1CCN(C(=S)c2ccc(OCC(=O)NCc3ccccc3)cc2)CC1 [2-[4-(4-ethylpiperazin-1-yl)carbothioylphenoxy]-N-(phenylmethyl)ethanamide] | < 4.10 |
| CCc1ccc(NC2=NC(=O)C(=Cc3ccc(OCC(=O)O)cc3)S2)cc1 [2-[4-[(Z)-[2-(4-ethylanilino)-4-oxo-5-thiazolylidene]methyl]phenoxy]acetic acid] | 4.43 |
| Cc1cccc(Nc2nn3c(=O)c4ccccc4nc3s2)c1 [2-[(3-methylphenyl)amino]-5H-[1,3,4]thiadiazolo[2,3-b]quinazolin-5-one] | 5.08 |
| Cc1ccc(-c2nc(NC(=O)CSc3cc(C)c4ccccc4n3)ns2)cc1 [2-[(4-methyl-2-quinolyl)thio]-N-[5-(p-tolyl)-1,2,4-thiadiazol-3-yl]acetamide] | < 4.10 |
| COc1cc(/C=C2/SC(=S)N(CC(=O)O)C2=O)ccc1OCC(=O)Nc1ccc(C)c(C)c1 [2-[(5E)-5-[[4-[2-[(3,4-dimethylphenyl)amino]-2-oxidanylidene-ethoxy]-3-methoxy-phenyl]methylidene]-4-oxidanylidene-2-sulfanylidene-1,3-thiazolidin-3-yl]ethanoic acid] | < 4.10 |
| CCCCCn1c(N)c(-c2nc3ccccc3o2)c2c([N+](=O)[O-])nn(C)c(=O)c21 [2-amino-1-amyl-3-(1,3-benzoxazol-2-yl)-6-methyl-4-nitro-pyrrolo[2,3-d]pyridazin-7-one] | < 4.10 |
| O=C(NN=Cc1ccc(F)cc1)c1cc(-c2ccc3c(c2)OCO3)n[nH]1 [3-(1,3-benzodioxol-5-yl)-N-[(E)-(4-fluorobenzylidene)amino]-1H-pyrazole-5-carboxamide] | < 4.10 |
| COc1ccc(NC(=S)N(CCC(C)C)C2CCN(C(C)C)CC2)cc1Cl [3-(3-chloranyl-4-methoxy-phenyl)-1-(3-methylbutyl)-1-(1-propan-2-ylpiperidin-4-yl)thiourea] | 4.97 |
| COc1ccc(-n2nc(C(=O)NCC(=O)Nc3ccccn3)c3ccccc3c2=O)cc1Cl [3-(3-chloranyl-4-methoxy-phenyl)-4-oxidanylidene-N-[2-oxidanylidene-2-(pyridin-2-ylamino)ethyl]phthalazine-1-carboxamide] | < 4.10 |
| Cc1ccc(Cn2cc(C=O)c(-c3ccc(C)cc3)n2)cc1 [3-(4-methylphenyl)-1-[(4-methylphenyl)methyl]-4-pyrazolecarboxaldehyde] | < 4.10 |
| Cc1c(CCC(=O)O)c(=O)oc2c(C)c(OCc3ccccc3Cl)ccc12 [3-[7-[(2-chlorophenyl)methoxy]-4,8-dimethyl-2-oxochromen-3-yl]propanoic acid] | 5.19 |
| Cc1c(CCC(=O)O)c(=O)oc2c(C)c(OCc3cc4c(cc3Cl)OCO4)ccc12 [3-[7-[(6-chloranyl-1,3-benzodioxol-5-yl)methoxy]-4,8-dimethyl-2-oxidanylidene-chromen-3-yl]propanoic acid] | < 4.10 |
| O=C(CSc1nc(-c2ccc(F)cc2)nc2c1Cc1ccccc1O2)Nc1cccc(C(=O)O)c1 [3-[({[2-(4-fluorophenyl)-5H-chromeno[2,3-d]pyrimidin-4-yl]thio}acetyl)amino]benzoic acid] | 5.81 |
| O=C1Nc2ccc3sc4ccccc4c3c2C1=O [3H-6-Thia-3-aza-cyclopenta[c]fluorene-1,2-dione] | < 4.10 |
| COc1cc(/C=C2/C(=O)NN(c3cccc(C)c3)C2=O)cc([N+](=O)[O-])c1O [4-(4-hydroxy-3-methoxy-5-nitrobenzylidene)-1-(3-methylphenyl)-3,5-pyrazolidinedione] | < 4.10 |
| CN(C)c1ccc(C(=O)OCC(=O)Nc2ccc(S(N)(=O)=O)cc2)cc1 [4-(dimethylamino)benzoic acid [2-oxo-2-(4-sulfamoylanilino)ethyl] ester] | 5.10 |

Same assay, conditions: inactive by the depositor's call

| SMILES | pIC50 |
| --- | --- |
| O=S(=O)(O)c1cc(O)c2cc(Nc3ccccc3)ccc2c1 | 4.62 |
| O=S(=O)(Nc1ccc(Cl)cc1)c1ccc(N2CCOCC2)c(NC(=S)NCCN2CCOCC2)c1 | 4.67 |
| O=C(CCc1ccccc1)NNC(=O)c1ccc(NC(=O)c2ccccc2)cc1 | 4.42 |
| COc1cccc(Nc2nn3c(=O)c4ccccc4nc3s2)c1 | 4.24 |
| CCC(CC)c1nnc(NC(=O)c2cc(C(=O)OC)cc([N+](=O)[O-])c2)s1 | 4.66 |
| CN1CCC2(CC1)N=C(c1ccc(F)cc1)C(=S)N2 | 4.14 |
| Cc1ccc(N=C(S)N(CCN(C)C)Cc2cccs2)c(C)c1 | 4.25 |
| S=C(NCCCN1CCOCC1)Nc1ccc(-c2nc3ccccc3[nH]2)cc1 | 4.10 |
| NC(=O)C1(N2CCCCC2)CCN(C(=S)Nc2ccc(S(N)(=O)=O)cc2)CC1 [1'-({[4-(aminosulfonyl)phenyl]amino}carbonothioyl)-1,4'-bipiperidine-4'-carboxamide] | 4.59 |
| S=C(NCCc1ccccc1)Nc1c(Cl)cccc1Cl [1-(2,6-dichlorophenyl)-3-(2-phenylethyl)thiourea] | 4.39 |
| COc1ccc(NC(=S)NCCCN2CCCC2)cc1Cl [1-(3-chloro-4-methoxyphenyl)-3-[3-(1-pyrrolidinyl)propyl]thiourea] | 4.51 |
| CN1CCN(C(=S)c2ccc(Br)cc2)CC1 [1-[(4-bromophenyl)carbonothioyl]-4-methylpiperazine] | 4.38 |
| Cc1nn(C)cc1C=NNC(=S)Nc1ccccc1 [1-[(E)-(1,3-dimethylpyrazol-4-yl)methylideneamino]-3-phenyl-thiourea] | 4.24 |
| CCCN(CC(=O)Nc1ccccc1OC)C(=O)Cc1ccc2c(c1)CCC2 [2-(2,3-dihydro-1H-inden-5-yl)-N-[2-[(2-methoxyphenyl)amino]-2-oxidanylidene-ethyl]-N-propyl-ethanamide] | 4.24 |
| CCCc1cc(=O)oc2cc(OCC(=O)Nc3ccc(S(N)(=O)=O)cc3)ccc12 [2-(2-oxo-4-propylchromen-7-yl)oxy-N-(4-sulfamoylphenyl)acetamide] | 4.51 |
| Cc1c(CC(=O)O)c(=O)oc2c(C)c(OCc3ccccc3Br)ccc12 [2-[7-[(2-bromophenyl)methoxy]-4,8-dimethyl-2-oxochromen-3-yl]acetic acid] | 4.58 |
| Cc1ccc(-n2c(C)nc3oc4ccccc4c(=O)c3c2=O)cc1 [2-methyl-3-(4-methylphenyl)[1]benzopyrano[2,3-d]pyrimidine-4,5-dione] | 4.12 |
| O=C(N/N=C/c1cccnc1)c1ccc(NC(=O)c2cccc(Cl)c2)cc1 [3-chloro-N-[4-[oxo-[(2E)-2-(3-pyridinylmethylidene)hydrazinyl]methyl]phenyl]benzamide] | 4.34 |
| Cn1c(=O)[nH]c(=O)c2c1nc(SCCN1CCCCC1)n2CCCc1ccccc1 [3-methyl-7-(3-phenylpropyl)-8-[2-(1-piperidinyl)ethylthio]purine-2,6-dione] | 4.22 |
